# Reference: patent US9757368B2, “Anti-inflammatory agents” (Resverlogix Corp., priority 2009, dated 2017)
# Assays:
# hVCAM-1 mRNA = assay: Quantification of hVCAM-1 mRNA in TNF-α-stimulated HUV-EC-C cells (real-time PCR); type: cell-based, human; design: key: Active: an active compound is one that causes a ≧20% inhibition in VCAM-1 mRNA at a concentration less than or equal to 10 μM; conditions: 1 h pretreatment, TNF-α 10 ng/mL, 24 h, VCAM-1 mRNA normalised to hCyclophilin, compound ≤10 μM
# Protocol: In this example, hVCAM-1 mRNA in tissue culture cells was quantitated to measure the transcriptional inhibition of hVCAM when treated with a compound of the invention.
# A human umbilical vein endothelial cell line (HUV-EC-C) was plated in a 96-well plate (5.0×10^3 cells/well) in 100 μL EGM complete media and incubated for 24 h prior to the addition of the compound of interest. The cells were pretreated for 1 h with the test compound in DMSO prior to stimulation with tumor necrosis factor-α (10 ng/mL). The cells were incubated for an additional 24 h before harvest. At time of harvest, the cells were rinsed in 200 μL PBS, and cell lysis solution (70 μL) was then added the cells for 10 min. mRNA was then prepared using the “mRNA Catcher PLUS plate” (Invitrogen), according to the protocol supplied.
# (§1) The eluted mRNA was then used in a one-step quantitative real-time PCR reaction, using components of the UltraSense kit together with Applied Biosystems primer-probe mixes. 10 μL of template was amplified with 1.75 μL of hVCAM-1 primer-probe, and 1 μL of hCyclophilin primer probe, and the reaction was carried out in multiplex. Real-time PCR data was analyzed, normalizing the Ct values for hVCAM-1 to hCyclophilin, prior to determining the fold induction of each unknown sample, relative to the control.
# hIL-6 mRNA = assay: Quantification of hIL-6 mRNA in LPS-stimulated U937 macrophages (real-time PCR); type: cell-based, human; design: key: Active: an active compound is one that causes a ≧20% inhibition in IL-6 mRNA at a concentration less than or equal to 10 μM; conditions: U937 cells differentiated with PMA, 1 h pretreatment, LPS 1 μg/mL, 3 h; IL-6 mRNA normalised to hCyclophilin; compound ≤10 μM
# Protocol: In this example, hIL-6 mRNA in tissue culture cells was quantitated to measure the transcriptional inhibition of hIL-6 when treated with a compound of the invention.
# A human leukemic monocytic lymphoma cell line (U937) was plated (3.2×10^5 cells per well) in a 96-well plate in 100 μL RPMI 1640+10% FBS, and differentiated into macrophages with PMA (60 ng/mL) for 3 days prior to the addition of the compound of interest. The cells were pretreated for 1 h with the test compound in DMSO prior to stimulation with lipopolysaccharide from Escherichia coli at 1 μg/mL. The cells were incubated for 3 h before harvest. At the time of harvest, cells were rinsed in 200 μL PBS. Cell lysis solution (70 μL) was added the cells for 10 min, and mRNA was then prepared using the “mRNA Catcher PLUS plate” (Invitrogen), according to the protocol supplied.
# as §1, with “mRNA isolated” for “mRNA”, “of IL-6” for “of hVCAM-1”, “for hIL-6” for “for hVCAM-1”
SMILES,Inhibition of VCAM-1 expression (hVCAM-1 mRNA),Inhibition of IL-6 expression (hIL-6 mRNA)
"Cc1cc(-c2nc3cc(OCCN(C)C)ccc3c(=O)[nH]2)cc(C)c1O [Example 7, 7-(2-dimethylamino-ethoxy)-2-(4-hydroxy-3,5-dimethylphenyl)-3H-quinazolin-4-one]",Active,Active
"Cc1cc(-c2nc3ccc(Nc4ccccn4)cc3c(=O)[nH]2)cc(C)c1O [Example 9, 2-(4-hydroxy-3,5-dimethyl-phenyl)-6-(pyridin-2-ylamino)-3H-quinazolin-4-one]",Active,Active
"Cc1cc(-c2nc3ccc(CN4CCN(C)CC4)cc3c(=O)[nH]2)cc(C)c1O [Example 10, 2-(4-hydroxy-3,5-dimethylphenyl)-6-((4-methylpiperazin-1-yl)methyl)quinazolin-4(3H)-one]",Active,Active
"Cc1cc(-c2nc3cc(F)cc(F)c3c(=O)[nH]2)cc(C)c1OCCO [Example 15, 5,7-difluoro-2-(4-(2-hydroxyethoxy)-3,5-dimethylphenyl)quinazolin-4(3H)-one]",Inactive,Active
"Cc1cc(-c2nc3ccc(CN4CCOCC4)cc3c(=O)[nH]2)cc(C)c1OCCO [Example 17, 2-[4-(2-hydroxyethoxy)-3,5-dimethyl-phenyl]-6-morpholin-4-ylmethyl-3H-quinazolin-4-one]",Inactive,Active
"COc1cc(OC)c2c(=O)[nH]c(-c3cc(C)c(OCC(O)CO)c(C)c3)nc2c1 (stereo not shown) [Example 18, 2-[4-(2,3-Dihydroxy-propoxy)-3,5-dimethyl-phenyl]-5,7-dimethoxy-3H-quinazolin-4-one]",Active,Active
"COc1cc(OC)c2c(=O)[nH]c(-c3ccc(OCCO)cc3)nc2c1 [Example 20, 2-[4-(2-hydroxy-ethoxy)-phenyl]-5,7-dimethoxy-3H-quinazolin-4-one]",Active,Active
"COc1cc(OC)c2c(=O)[nH]c(-c3ccc(OCCO)c4ccccc34)nc2c1 [Example 21, 2-[4-(2-hydroxy-ethoxy)-naphthalen-1-yl]-5,7-dimethoxy-3H-quinazolin-4-one]",Inactive,Active
"COc1cc(OC)c2c(=O)[nH]c(-c3ccc4oc(CO)cc4c3)nc2c1 [Example 22, 2-(2-hydroxymethyl-benzofuran-5-yl)-5,7-dimethoxy-3H-quinazolin-4-one]",Active,Active
"COc1cc(OCCOCc2ccccc2)cc2nc(-c3cc(C)c(OCCO)c(C)c3)[nH]c(=O)c12 [Example 23, 7-(2-benzyloxy-ethoxy)-2-[4-(2-hydroxy-ethoxy)-3,5-dimethyl-phenyl]-5-methoxy-3H-quinazolin-4-one]",Active,Active
"CNC(=O)COc1c(C)cc(-c2nc3cc(OC)cc(OC)c3c(=O)[nH]2)cc1C [Example 25, 2-[4-(5,7-dimethoxy-4-oxo-3,4-dihydro-quinazolin-2-yl)-2,6-dimethyl-phenoxy]-N-methyl-acetamide]",Active,Active
"COc1ccc(NC(=O)COc2c(C)cc(-c3nc4cc(OC)cc(OC)c4c(=O)[nH]3)cc2C)cc1 [Example 26, 2-[4-(5,7-Dimethoxy-4-oxo-3,4-dihydro-quinazolin-2-yl)-2,6-dimethyl-phenoxy]-N-(4-methoxy-phenyl)-acetamide]",Active,Active
"COc1cc(OC)c2c(=O)[nH]c(-c3cc(C)c(OCCCCO)c(C)c3)nc2c1 [Example 28, 2-[4-(4-hydroxy-butoxy)-3,5-dimethyl-phenyl]-5,7-dimethoxy-3H-quinazolin-4-one]",Active,Active
"Cc1cc(-c2nc3cc(Cl)ccc3c(=O)[nH]2)cc(C)c1OCCO [Example 29, 7-chloro-2-(4-(2-hydroxyethoxy)-3,5-dimethylphenyl)quinazolin-4(3H)-one]",Active,Active
"Cc1cc(-c2nc3c(Cl)cccc3c(=O)[nH]2)cc(C)c1OCCO [Example 30, 8-chloro-2-(4-(2-hydroxyethoxy)-3,5-dimethylphenyl)quinazolin-4(3H)-one]",Inactive,Active
"COc1cccc2c(=O)[nH]c(-c3cc(C)c(OCCO)c(C)c3)nc12 [Example 31, 2-(4-(2-hydroxyethoxy)-3,5-dimethylphenyl)-8-methoxyquinazolin-4(3H)-one]",Active,Active
"Cc1cc(-c2nc3cccc(Cl)c3c(=O)[nH]2)cc(C)c1OCCO [Example 32, 5-chloro-2-(4-(2-hydroxyethoxy)-3,5-dimethylphenyl)quinazolin-4(3H)-one]",Active,Active
"COc1ccc2c(=O)[nH]c(-c3cc(C)c(OCCO)c(C)c3)nc2c1 [Example 33, 2-(4-(2-hydroxyethoxy)-3,5-dimethylphenyl)-7-methoxyquinazolin-4(3H)-one]",Active,Active
"Cc1cc(-c2nc3ccc(CN4CCN(C)CC4)cc3c(=O)[nH]2)cc(C)c1OCCO [Example 34, 2-(4-(2-hydroxyethoxy)-3,5-dimethylphenyl)-6-((4-methylpiperazin-1-yl)methyl)quinazolin-4(3H)-one]",Active,Active
"COc1cc(OC)c2c(=O)[nH]c(-c3ccc(OCCNc4nnc(-c5ccccc5)[nH]4)c(C)c3)nc2c1 [Example 35, 5,7-Dimethoxy-2-{3-methyl-4-[2-(5-phenyl-4H-[1,2,4]triazol-3-ylamino)-ethoxy]-phenyl}-3H-quinazolin-4-one]",Active,Active
"COc1cc(OC)c2c(=O)[nH]c(-c3cc(C)c(OCCNc4nc(C)no4)c(C)c3)nc2c1 [Example 36, 2-{3,5-Dimethyl-4-[2-(3-methyl-[1,2,4]oxadiazol-5-ylamino)-ethoxy]-phenyl}-5,7-dimethoxy-3H-quinazolin-4-one]",Active,Active
"COc1cc(OC)c2c(=O)[nH]c(-c3cc(C)c(OCCNC(C)=O)c(C)c3)nc2n1 [Example 37, N-{2-[4-(5,7-dimethoxy-4-oxo-3,4-dihydro-pyrido[2,3-d]pyrimidin-2-yl)-2,6-dimethyl-phenoxy]-ethyl}-acetamide]",Inactive,Active
"COc1cc(OC)c2c(=O)[nH]c(-c3cc(C)c(CNC(C)=O)c(C)c3)nc2c1 [Example 38, N-(4-(5,7-dimethoxy-4-oxo-3,4-dihydroquinazolin-2-yl)-2,6-dimethylbenzyl)acetamide]",Active,Active
"COc1cc(OC)c2c(=O)[nH]c(-c3cc(C)c(CNC(C)=O)c(C)c3)nc2n1 [Example 39, N-[4-(5,7-dimethoxy-4-oxo-3,4-dihydro-pyrido[2,3-d]pyrimidin-2-yl)-2,6-dimethyl-benzyl]-acetamide]",Active,Active
"COc1cc(OC)c2c(=O)[nH]c(-c3cc(C)c(OCCNCC(F)(F)F)c(C)c3)nc2c1 [Example 40, 2-{3,5-dimethyl-4-[2-(2,2,2-trifluoro-ethylamino)-ethoxy]-phenyl}-5,7-dimethoxy-3H-quinazolin-4-one]",Active,Active
"CNCCOc1c(C)cc(-c2nc3cc(OC)cc(OC)c3c(=O)[nH]2)cc1C [Example 42, 2-(3,5-dimethyl-4-(2-(methylamino)ethoxy)phenyl)-5,7-dimethoxyquinazolin-4(3H)-one]",Active,Active
